Assay results published in ChEMBL document CHEMBL6182877, “Design, synthesis, and activity evaluation of novel STING inhibitors based on C170 and H151” (Eur J Med Chem, 2025).
The source made the active and inactive calls. The calls are words filed in the database; no cut-off is given here.

How the values were obtained:
[1] = tested on: RAW264.7; experiment: Cytotoxicity against mouse RAW264.7 cells assessed as cell viability by MTT assay
[2] = Cytotoxicity against HEK293T cells assessed as cell viability by MTT assay; format: toxicity, cell-based, HEK-293T; conditions: human
[3] = target: T1, Interferon regulatory factor 3 (Homo sapiens) (UniProt Q14653); experiment: Inhibition of IRF3 phosphorylation in SR717-induced human THP-1 cells at 0.2 to 5 uM pretreated with compound for 1 hr followed by SR717 induction and measured after 4 hrs by Western blot analysis; format: cell-based; conditions: dose 0.2-5 µM, time 5.0 hrs
T1 sequence (whole entry): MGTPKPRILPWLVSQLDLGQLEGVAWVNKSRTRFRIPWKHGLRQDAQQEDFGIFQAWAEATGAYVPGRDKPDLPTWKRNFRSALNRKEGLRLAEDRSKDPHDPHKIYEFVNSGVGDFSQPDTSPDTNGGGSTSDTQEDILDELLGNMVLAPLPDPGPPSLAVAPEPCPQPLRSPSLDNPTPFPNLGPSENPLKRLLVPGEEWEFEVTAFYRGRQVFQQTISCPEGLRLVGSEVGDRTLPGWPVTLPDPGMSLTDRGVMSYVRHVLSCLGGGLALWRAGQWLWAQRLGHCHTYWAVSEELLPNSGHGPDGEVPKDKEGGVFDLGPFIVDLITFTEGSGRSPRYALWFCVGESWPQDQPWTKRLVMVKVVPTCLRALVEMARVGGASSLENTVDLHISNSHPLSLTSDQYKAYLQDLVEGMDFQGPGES

[4] = target: T2, Serine/threonine-protein kinase TBK1 (Homo sapiens) (UniProt Q9UHD2); experiment: Inhibition of TBK1 phosphorylation in SR717-induced human THP-1 cells at 0.2 to 5 uM pretreated with compound for 1 hr followed by SR717 induction and measured after 4 hrs by Western blot analysis; format: cell-based; conditions: dose 0.2-5 µM, time 5.0 hrs
T2 sequence (whole entry): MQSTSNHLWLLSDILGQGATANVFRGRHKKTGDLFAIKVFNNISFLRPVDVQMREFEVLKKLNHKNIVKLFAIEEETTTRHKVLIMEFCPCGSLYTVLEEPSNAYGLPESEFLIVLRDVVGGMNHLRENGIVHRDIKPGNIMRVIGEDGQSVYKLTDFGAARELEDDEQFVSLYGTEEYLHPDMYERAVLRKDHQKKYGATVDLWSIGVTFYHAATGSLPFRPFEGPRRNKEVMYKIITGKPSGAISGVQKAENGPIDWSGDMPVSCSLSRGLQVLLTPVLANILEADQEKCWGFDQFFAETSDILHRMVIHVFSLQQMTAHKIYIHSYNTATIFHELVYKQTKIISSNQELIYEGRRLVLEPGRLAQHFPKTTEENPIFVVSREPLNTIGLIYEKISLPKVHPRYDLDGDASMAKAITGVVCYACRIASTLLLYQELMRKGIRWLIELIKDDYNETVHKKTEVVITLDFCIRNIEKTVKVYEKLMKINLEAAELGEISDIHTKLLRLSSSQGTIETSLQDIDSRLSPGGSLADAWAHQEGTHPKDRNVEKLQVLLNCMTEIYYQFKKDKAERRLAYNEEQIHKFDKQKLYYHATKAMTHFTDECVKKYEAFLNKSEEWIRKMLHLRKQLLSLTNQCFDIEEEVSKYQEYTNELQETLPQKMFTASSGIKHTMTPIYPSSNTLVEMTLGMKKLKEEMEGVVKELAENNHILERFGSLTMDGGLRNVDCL

[5] = tested on: THP-1; experiment: Cytotoxicity against human THP-1 cells assessed as cell viability by MTT assay
[6] = Toxicity in male C57BL/6J mouse assessed as body weight loss at 10 mg/kg, ip; format: organism-based; conditions: in vivo
[7] = Toxicity in male C57BL/6J mouse assessed as kidney damage at 10 mg/kg, ip by H and E staining based analysis; format: organism-based; conditions: in vivo
[8] = target: T3, Stimulator of interferon genes protein (Mus musculus) (UniProt Q3TBT3); experiment: Binding affinity to STING in mouse RAW264.7 cells assessed as increase in thermal stability at 30 uM 40 to 61 degreeC incubated for 8 hrs by CETSA analysis; format: cell-based
T3 sequence (whole entry): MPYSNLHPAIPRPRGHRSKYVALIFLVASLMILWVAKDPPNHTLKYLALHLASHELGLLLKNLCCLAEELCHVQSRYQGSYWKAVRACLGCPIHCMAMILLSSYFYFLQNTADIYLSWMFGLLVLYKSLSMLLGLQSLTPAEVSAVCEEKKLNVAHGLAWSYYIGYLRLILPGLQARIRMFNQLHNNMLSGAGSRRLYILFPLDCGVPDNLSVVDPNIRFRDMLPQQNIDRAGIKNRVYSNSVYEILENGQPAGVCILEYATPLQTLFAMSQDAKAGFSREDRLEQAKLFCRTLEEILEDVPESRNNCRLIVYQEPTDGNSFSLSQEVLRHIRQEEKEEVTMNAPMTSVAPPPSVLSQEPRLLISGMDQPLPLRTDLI

[9] = Cytotoxicity against HUVEC cells assessed as cell viability by MTT assay; format: toxicity, cell-based; conditions: human
[10] = tested on: Mus musculus; experiment: Renoprotective activity in cisplatin-induced acute kidney injury C57BL/6J mouse model assessed as reduction in BUN level at 10 mg/kg, ip; format: functional, organism-based
[11] = tested on: Mus musculus; experiment: Anti-inflammatory activity against MSA-2 induced C57BL/6 mouse model assessed as downregulation of TBK1 expression in spleen at 30 mg/kg, ip pretreated with compound for 1 hr followed by MSA-2 induction and measured after 4 hrs; format: functional, organism-based; conditions: time 5.0 hrs
[12] = tested on: Mus musculus; experiment: Anti-inflammatory activity against MSA-2 induced C57BL/6 mouse model assessed as reduction in splenic index at 30 mg/kg, ip pretreated with compound for 1 hr followed by MSA-2 induction and measured after 4 hrs; format: functional, organism-based; conditions: time 5.0 hrs
[13] = tested on: Mus musculus; experiment: Anti-inflammatory activity against MSA-2 induced C57BL/6 mouse model assessed as reduction in IFN-beta level in plasma at 30 mg/kg, ip pretreated with compound for 1 hr followed by MSA-2 induction and measured after 4 hr; format: functional, organism-based; conditions: time 5.0 hrs
[14] = tested on: Mus musculus; experiment: Anti-inflammatory activity against MSA-2 induced C57BL/6 mouse model assessed as reduction in IL-6 level in plasma at 30 mg/kg, ip pretreated with compound for 1 hr followed by MSA-2 induction and measured after 4 hr; format: functional, organism-based; conditions: time 5.0 hrs
[15] = tested on: Mus musculus; experiment: Renoprotective activity in cisplatin-induced acute kidney injury C57BL/6J mouse model assessed as reduction in […] level at 10 mg/kg, ip; format: functional, organism-based
[16] = tested on: RAW264.7; experiment: Antiinflammatory activity in mouse RAW264.7 cells assessed as inhibition of LPS-induced NO release at 0.2 to 5 uM pretreated with compound for 1 hr; format: functional, cell-based; conditions: dose 0.2-5 µM
[17] = tested on: Mus musculus; experiment: Anti-inflammatory activity in cisplatin-induced acute kidney injury C57BL/6J mouse model assessed as reduction in ALT level in plasma at 10 to 20 mg/kg, ip; format: functional, organism-based; conditions: dose 10-20 mg/kg
[18] = tested on: Mus musculus; experiment: Protection against cisplatin-induced C57BL/6J mouse assessed as reduction in tubular epithelial edema in kidney at 10 to 20 mg/kg, ip pretreated with compound for 1 hr followed by cisplatin induction and measured after 4 hrs by H and E staining based analysis; format: functional, organism-based; conditions: dose 10-20 mg/kg, time 5.0 hrs
[19] = tested on: Mus musculus; experiment: Protection against cisplatin-induced C57BL/6J mouse assessed as effect on fibrotic tissue proliferation in spleen at 10 to 20 mg/kg, ip pretreated with compound for 1 hr followed by cisplatin induction and measured after 4 hrs by H and E staining based analysis; format: functional, organism-based; conditions: dose 10-20 mg/kg, time 5.0 hrs
[20] = tested on: Mus musculus; experiment: Anti-inflammatory activity in cisplatin-induced acute kidney injury C57BL/6J mouse model assessed as reduction in AST level in plasma at 10 to 20 mg/kg, ip; format: functional, organism-based; conditions: dose 10-20 mg/kg
[21] = target: T3, Stimulator of interferon genes protein (Mus musculus); experiment: Binding affinity to STING in mouse RAW264.7 cells assessed as increase in thermal stability at 30 uM 47 to 62 degreeC incubated for 8 hrs by CETSA analysis; format: cell-based
[22] = tested on: Mus musculus; experiment: Protection against cisplatin-induced C57BL/6J mouse assessed as reduction in tubular structure disintegration in kidney at 10 to 20 mg/kg, ip pretreated with compound for 1 hr followed by cisplatin induction and measured after 4 hrs by H and E staining based analysis; format: functional, organism-based; conditions: dose 10-20 mg/kg, time 5.0 hrs
[23] = target: Stimulator of interferon genes protein (Homo sapiens) (UniProt Q86WV6); experiment: Inhibition of STING activation in human THP-1 cells assessed as reduction in SR717-induced IFNbeta mRNA expression at 0.03 to 0.3 uM pretreated with compound for 1 hr followed by SR717 induction and measured after 4 hrs by qPCR analysis; format: cell-based; conditions: dose 0.03-0.3 µM, time 5.0 hrs
[24] = tested on: Mus musculus; experiment: Protection against cisplatin-induced C57BL/6J mouse assessed as effect on inflammatory cell infiltration in spleen at 10 to 20 mg/kg, ip pretreated with compound for 1 hr followed by cisplatin induction and measured after 4 hrs by H and E staining based analysis; format: functional, organism-based; conditions: dose 10-20 mg/kg, time 5.0 hrs
[25] = target: Stimulator of interferon genes protein (Homo sapiens) (UniProt Q86WV6); experiment: Inhibition of STING activation in human THP-1 cells assessed as reduction in SR717-induced CXCL10 mRNA expression at 0.03 to 0.3 uM pretreated with compound for 1 hr followed by SR717 induction and measured after 4 hrs by qPCR analysis; format: cell-based; conditions: dose 0.03-0.3 µM, time 5.0 hrs
[26] = tested on: Mus musculus; experiment: Protection against cisplatin-induced C57BL/6J mouse assessed as reduction in inflammatory cell exudation in kidney at 10 to 20 mg/kg, ip pretreated with compound for 1 hr followed by cisplatin induction and measured after 4 hrs by H and E staining based analysis; format: functional, organism-based; conditions: dose 10-20 mg/kg, time 5.0 hrs
[27] = tested on: Mus musculus; experiment: Renoprotective activity in cisplatin-induced acute kidney injury C57BL/6J mouse model assessed as reduction in […] level at 10 to 20 mg/kg, ip; format: functional, organism-based; conditions: dose 10-20 mg/kg
[28] = tested on: Mus musculus; experiment: Protection against cisplatin-induced C57BL/6J mouse assessed as effect on enlargement of splenic corpuscle in spleen at 10 to 20 mg/kg, ip pretreated with compound for 1 hr followed by cisplatin induction and measured after 4 hrs by H and E staining based analysis; format: functional, organism-based; conditions: dose 10-20 mg/kg, time 5.0 hrs
[29] = tested on: Mus musculus; experiment: Protection against cisplatin-induced C57BL/6J mouse assessed as reduction in vacuole-like changes in kidney at 10 to 20 mg/kg, ip pretreated with compound for 1 hr followed by cisplatin induction and measured after 4 hrs by H and E staining based analysis; format: functional, organism-based; conditions: dose 10-20 mg/kg, time 5.0 hrs
[30] = tested on: Mus musculus; experiment: Anti-inflammatory activity in cisplatin-induced acute kidney injury C57BL/6J mouse model assessed as reduction in kidney index at 10 to 20 mg/kg, ip; format: functional, organism-based; conditions: dose 10-20 mg/kg
[31] = tested on: Mus musculus; experiment: Protection against cisplatin-induced C57BL/6J mouse assessed as reduction in tubular obstruction in kidney at 10 to 20 mg/kg, ip pretreated with compound for 1 hr followed by cisplatin induction and measured after 4 hrs by H and E staining based analysis; format: functional, organism-based; conditions: dose 10-20 mg/kg, time 5.0 hrs

Stimulator of interferon genes protein (Homo sapiens), sequence (Q86WV6 whole entry): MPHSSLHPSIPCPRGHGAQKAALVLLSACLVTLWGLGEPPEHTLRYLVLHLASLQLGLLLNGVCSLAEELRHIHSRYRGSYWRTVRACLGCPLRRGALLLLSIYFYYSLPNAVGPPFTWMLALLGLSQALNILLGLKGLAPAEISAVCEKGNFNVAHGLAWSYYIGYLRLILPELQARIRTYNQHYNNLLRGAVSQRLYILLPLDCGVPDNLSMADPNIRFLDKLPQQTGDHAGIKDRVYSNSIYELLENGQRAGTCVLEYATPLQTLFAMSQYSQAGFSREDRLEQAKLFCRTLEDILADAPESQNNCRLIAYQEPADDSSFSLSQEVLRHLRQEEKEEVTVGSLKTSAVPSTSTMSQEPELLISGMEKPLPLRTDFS

Row | Compound | IC50 [1] [µM] | IC50 [2] [µM] | IC50 [5] [µM] | Activity [6] | Activity [7] | IC50 [9] [µM] | Activity [10] | Activity [11] | Activity [12] | Activity [13] | Activity [14] | Activity [15] | further results
1 | C/C=C/C=C/C(=O)OCc1ccc(NC(=O)c2ccc([N+](=O)[O-])o2)cc1 | 0.49 | 8.57 | – | – | – | – | – | – | – | – | – | – | –
2 | O=C(/C=C/C=C/c1ccccc1)OCc1ccc(NC(=O)c2ccc([N+](=O)[O-])o2)cc1 | 0.53 | 7.43 | – | – | – | – | – | – | – | – | – | – | –
3 | O=C(Nc1ccc(OCCCC(F)(F)F)cc1)c1ccc([N+](=O)[O-])o1 | 5.21 | 11.3 | 16.8 | Non-toxic | Non-toxic | 10.4 | Active | Active | Active | Active | Active | Active | inhibition [3]: Active; inhibition [4]: Active; Activity [8]: Active; Activity [16]: inactive
4 | O=C(/C=C/C=C/c1ccccc1)OCCc1ccc(NC(=O)c2ccc([N+](=O)[O-])o2)cc1 | 2.62 | 6.34 | 4.6 | – | – | 7.89 | – | – | – | – | – | – | –
5 | CCCCc1ccc(NC(=O)c2ccc([N+](=O)[O-])o2)cc1 | 0.89 | 2.81 | 8.07 | Non-toxic | Non-toxic | 4.77 | Active | Active | Active | Active | Active | Active | –
6 | O=C(Nc1ccc(OCCCC(F)(F)F)cc1)Nc1c[nH]c2ccccc12 | – | – | – | – | – | – | – | – | – | – | – | – | Activity [17]: Active; Activity [18]: Active; Activity [19]: Active; Activity [20]: Active; Activity [21]: Active; Activity [22]: Active; inhibition [23]: Active; Activity [24]: Active; inhibition [25]: Active; Activity [26]: Active; Activity [27]: Active; Activity [28]: Active; Activity [29]: Active; Activity [30]: Active; Activity [31]: Active
